Values quoted from earlier work, collected in patent publication US8829054B1, “Ready-to-use co-solvents pharmaceutical composition in modified flexible plastic container” (Welgrace Research Group, priority 2013, dated 2014).

Details: published literature, Rosenberg et al. 1988

activation energies for Esmolol decompositions: 19 to 21.5 kcal/mol
Compound: COC(=O)CCc1ccc(OCC(O)CNC(C)C)cc1.Cl (stereo not shown) [Esmolol, methyl3-[4-[2-hydroxy-3-(isopropylamino)propoxy]phenyl]propionate hydrochloride]
